Assay results published in US9113629B2, “4-amino-6-(4-substituted-phenyl)-picolinates and 6-amino-2-(4-substituted-phenyl)-pyrimidine-4-carboxylates and their use as herbicides” (DOW AGROSCIENCES LLC, priority 2013, dated 2015).
Read-outs that look alike come from different tables or passages of the source.

How the values were obtained:
[1] = tested on: Key Broadleaf Weed and Crop Species; experiment: Post-emergent Test II herbicidal activity (Table 5); type: in vivo; conditions: post-emergence, 336 h, 14 days after application; for pest or weed control at 70 g/ha: application rate 70 g ai/ha; for pest or weed control at 140 g/ha: application rate 140 g ai/ha
Outline: (§1)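 Injury was rated visually 14 d after treatment on a 0–100% scale against untreated controls. Test compounds, formulated with crop oil concentrate and surfactant and serially diluted down to 1/16× of the top rate, were applied by track sprayer at 187 L/ha onto first- to second-true-leaf seedlings.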

[2] = tested on: Key Grass and Sedge Weeds as well as Grass Crops; experiment: Post-emergent Test II herbicidal activity (Table 6); type: in vivo; conditions: post-emergence, 336 h; for pest or weed control at 70 g/ha: 70 g ai/ha; for pest or weed control at 140 g/ha: 140 g ai/ha
Outline: as §1

[3] = ABUTH: velvetleaf (Abutilon theophrasti), read-out: Visual Growth Reduction (%) 14 Days After Application, ABUTH
[4] = AMARE: redroot pigweed (Amaranthus retroflexus), read-out: Visual Growth Reduction (%) 14 Days After Application, AMARE
[5] = BRSNN: oilseed-rape, canola (Brassica napus), read-out: Visual Growth Reduction (%) 14 Days After Application, BRSNN
[6] = CHEAL: lambsquarters (Chenopodium album), read-out: Visual Growth Reduction (%) 14 Days After Application, CHEAL
[7] = EPHHL: wild poinsettia (Euphorbia heterophylla), read-out: Visual Growth Reduction (%) 14 Days After Application, EPHHL
[8] = HELAN: sunflower (Helianthus annuus), read-out: Visual Growth Reduction (%) 14 Days After Application, HELAN
[9] = VIOTR: wild pansy (Viola tricolor), read-out: Visual Growth Reduction (%) 14 Days After Application, VIOTR
[10] = CYPES: yellow nutsedge (Cyperus esculentus), read-out: Visual Growth Reduction (%) 14 Days After Application, CYPES
[11] = DIGSA: crabgrass (Digitaria sanguinalis), read-out: Visual Growth Reduction (%) 14 Days After Application, DIGSA
[12] = ECHCG: barnyardgrass (Echinochloa crus-galli), read-out: Visual Growth Reduction (%) 14 Days After Application, ECHCG
[13] = ORYSA: rice (Oryza sativa), crop, read-out: Visual Growth Reduction (%) 14 Days After Application, ORYSA
[14] = SETFA: giant foxtail (Setaria faberi), read-out: Visual Growth Reduction (%) 14 Days After Application, SETFA
[15] = SORVU: grain sorghum (Sorghum vulgare), read-out: Visual Growth Reduction (%) 14 Days After Application, SORVU
[16] = TRZSS (wheat, Triticum aestivum), crop, read-out: Visual Growth Reduction (%) 14 Days After Application, TRZSS
[17] = ZEAMX: maize, corn (Zea mays), crop, read-out: Visual Growth Reduction (%) 14 Days After Application, ZEAMX

COC(=O)c1nc(-c2ccc(C#N)c(F)c2)c(F)c(N)c1Cl [Compound 135, methyl 4-amino-3-chloro-6-(4-cyano-3-fluorophenyl)-5-fluoropicolinate]
pest or weed control at 70 g/ha [1, 3]: 95 to 100%
pest or weed control at 140 g/ha [1, 3]: 95 to 100%
pest or weed control at 70 g/ha [1, 4]: 95 to 100%
pest or weed control at 140 g/ha [1, 4]: 95 to 100%
pest or weed control at 70 g/ha [1, 5]: 60 to 74%
pest or weed control at 140 g/ha [1, 5]: 60 to 74%
pest or weed control at 70 g/ha [1, 6]: 95 to 100%
pest or weed control at 140 g/ha [1, 6]: 95 to 100%
pest or weed control at 70 g/ha [1, 7]: 95 to 100%
pest or weed control at 140 g/ha [1, 7]: 95 to 100%
pest or weed control at 70 g/ha [1, 8]: 95 to 100%
pest or weed control at 140 g/ha [1, 8]: 95 to 100%
pest or weed control at 70 g/ha [1, 9]: 60 to 74%
pest or weed control at 140 g/ha [1, 9]: 60 to 74%
pest or weed control at 70 g/ha [2, 10]: 85 to 94%
pest or weed control at 140 g/ha [2, 10]: 95 to 100%
pest or weed control at 70 g/ha [2, 11]: 60 to 74%
pest or weed control at 140 g/ha [2, 11]: 75 to 84%
pest or weed control at 70 g/ha [2, 12]: 95 to 100%
pest or weed control at 140 g/ha [2, 12]: 95 to 100%
pest or weed control at 70 g/ha [2, 13]: 0 to 29%
pest or weed control at 140 g/ha [2, 13]: 0 to 29%
pest or weed control at 70 g/ha [2, 14]: 60 to 74%
pest or weed control at 140 g/ha [2, 14]: 75 to 84%
pest or weed control at 70 g/ha [2, 15]: 75 to 84%
pest or weed control at 140 g/ha [2, 15]: 85 to 94%
pest or weed control at 70 g/ha [2, 16]: 30 to 44%
pest or weed control at 140 g/ha [2, 16]: 30 to 44%
pest or weed control at 70 g/ha [2, 17]: 75 to 84%
pest or weed control at 140 g/ha [2, 17]: 75 to 84%
